Source: paper PMC12426935, “On-Cell Saturation Transfer Difference NMR Spectroscopy on Ion Channels: Characterizing Negative Allosteric Modulator Binding Interactions of P2X7” (Journal of the American Chemical Society, 2025)
Read-outs that look alike come from different tables or passages of the source.

Columns and labels:
mouse P2X7 (mP2X7) = biological target: T1, mouse P2X7 (mP2X7) (Mus musculus, UniProt Q9Z1M0); experiment: fura-2 intracellular calcium assay on HEK-293 stable cell line expressing mouse P2X7; assay type: cell-based
T1 construct: expressed in transfected cells
T1 sequence (Q9Z1M0 1-595): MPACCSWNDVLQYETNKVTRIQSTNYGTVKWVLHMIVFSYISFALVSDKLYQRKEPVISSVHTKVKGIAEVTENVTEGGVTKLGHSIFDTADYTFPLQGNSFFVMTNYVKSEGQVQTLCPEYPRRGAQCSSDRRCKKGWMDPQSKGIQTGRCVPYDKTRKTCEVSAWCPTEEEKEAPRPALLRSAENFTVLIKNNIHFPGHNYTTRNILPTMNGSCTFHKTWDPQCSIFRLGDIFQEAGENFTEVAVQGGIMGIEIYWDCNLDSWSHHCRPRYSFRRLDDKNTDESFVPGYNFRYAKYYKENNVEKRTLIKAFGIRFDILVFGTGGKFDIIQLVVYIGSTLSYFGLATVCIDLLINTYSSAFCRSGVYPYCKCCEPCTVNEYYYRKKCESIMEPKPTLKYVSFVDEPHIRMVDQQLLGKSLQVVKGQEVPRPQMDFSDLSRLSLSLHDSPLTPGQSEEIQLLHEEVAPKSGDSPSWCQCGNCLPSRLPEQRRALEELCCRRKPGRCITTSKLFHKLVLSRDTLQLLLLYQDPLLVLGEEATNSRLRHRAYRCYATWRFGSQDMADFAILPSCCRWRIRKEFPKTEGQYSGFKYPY
Protocol: (§1) Genetically edited HEK-293 cells lacking P2Y2 receptors were used to generate stable cell lines expressing human P2X7 (hP2X7), mouse P2X7 (mP2X7), rat P2X7 (rP2X7), or mutants of the hP2X7 NAM site (F88A, M105A, and F103A). Transfection was performed using lipofectamine 2000 (Fisher Scientific), and cells were subjected to Geneticin (800 μg/mL) selection for 2–3 weeks. This was followed by single cell cloning by limiting dilution in 96-well plates. Individual clones were selected for further study based on ATP-induced TO-PRO-3 uptake on a BD Cytoflex flow cytometer. Cell lines were maintained in DMEM:F12 media supplemented with 10% fetal bovine serum (PanBiotech), penicillin and streptomycin (Fisher Scientific) and kept in a humidified incubator with 5% CO2. Stable P2X7-expressing cells were kept under Geneticin selection at a concentration of 400 μg/mL. Passaging was performed twice weekly using 0.25% Trypsin-EDTA (Fisher Scientific).
P2X7 responses were measured by monitoring intracellular calcium responses using fura-2AM loaded cells. Cells were plated at 2–2.5 × 10^4 cells/well the day before experiments in 96-well plates (NUNC) coated with 50 μg/mL poly-D-lysine (Merck Millipore). A loading buffer containing 2 μM fura-2AM (HelloBio) and 250 μM sulfinpyrazone (Merck Millipore) in a low divalent buffer (145 mM NaCl, 5 mM KCl, 0.2 mM CaCl2, 10 mM HEPES, 13 mM glucose, pH 7.3) was added to cells for 45 min at 37 °C. After loading, the buffer was removed and replaced with calcium-containing extracellular solution (145 mM NaCl, 5 mM KCl, 2 mM CaCl2, 10 mM HEPES, 13 mM glucose, pH 7.3). Responses were measured using a Flexstation 3 plate reader (Molecular Devices) with dual excitation wavelengths of 340 and 380 nm and single emission wavelength of 510 nm. The sample interval was 3.5 s, and each well was recorded for 180 s. Fura-2 ratios were calculated in Softmax Pro v5.4; zero baseline was applied, and responses were measured as normalized area under the curve (AUC). […]

M105A hP2X7 = biological target: T2, M105A hP2X7 (Homo sapiens, UniProt Q99572, M105A); experiment: fura-2 intracellular calcium assay on HEK-293 stable cell line expressing NAM-site mutant M105A hP2X7; assay type: cell-based; settings: for IC50: n = 3
T2 sequence (Q99572 1-595 M105A): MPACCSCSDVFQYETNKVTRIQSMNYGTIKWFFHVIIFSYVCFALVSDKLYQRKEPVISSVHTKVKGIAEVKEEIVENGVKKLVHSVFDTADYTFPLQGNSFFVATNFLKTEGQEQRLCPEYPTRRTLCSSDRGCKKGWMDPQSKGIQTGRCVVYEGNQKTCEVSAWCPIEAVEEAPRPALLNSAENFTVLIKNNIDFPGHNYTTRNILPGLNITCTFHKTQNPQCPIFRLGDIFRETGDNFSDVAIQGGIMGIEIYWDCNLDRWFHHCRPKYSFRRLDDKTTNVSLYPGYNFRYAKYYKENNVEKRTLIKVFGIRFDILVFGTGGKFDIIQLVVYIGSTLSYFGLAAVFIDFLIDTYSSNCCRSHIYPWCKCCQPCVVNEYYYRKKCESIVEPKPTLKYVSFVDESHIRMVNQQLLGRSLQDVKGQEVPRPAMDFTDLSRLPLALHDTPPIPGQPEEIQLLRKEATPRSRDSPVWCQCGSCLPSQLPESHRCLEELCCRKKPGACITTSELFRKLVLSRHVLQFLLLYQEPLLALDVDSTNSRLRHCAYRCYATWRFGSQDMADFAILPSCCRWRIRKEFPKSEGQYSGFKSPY
Protocol: as §1, with “Transfection” for “Genetically edited HEK-293 cells lacking P2Y2 receptors were used to generate stable cell lines expressing human P2X7 (hP2X7), mouse P2X7 (mP2X7), rat P2X7 (rP2X7), or mutants of the hP2X7 NAM site (F88A, M105A, and F103A). Transfection”
P2X7 responses were measured by monitoring intracellular calcium responses using fura-2AM loaded cells. Cells were plated at 2–2.5 × 10^4 cells/well the day before experiments in 96-well plates (NUNC) coated with 50 μg/mL poly-D-lysine (Merck Millipore). A loading buffer containing 2 μM fura-2AM (HelloBio) and 250 μM sulfinpyrazone (Merck Millipore) in a low divalent buffer (145 mM NaCl, 5 mM KCl, 0.2 mM CaCl2, 10 mM HEPES, 13 mM glucose, pH 7.3) was added to cells for 45 min at 37 °C. After loading, the buffer was removed and replaced with calcium-containing extracellular solution (145 mM NaCl, 5 mM KCl, 2 mM CaCl2, 10 mM HEPES, 13 mM glucose, pH 7.3). Responses were measured using a Flexstation 3 plate reader (Molecular Devices) with dual excitation wavelengths of 340 and 380 nm and single emission wavelength of 510 nm. The sample interval was 3.5 s, and each well was recorded for 180 s. Fura-2 ratios were calculated in Softmax Pro v5.4; zero baseline was applied, and responses were measured as normalized area under the curve (AUC). Dose inhibition curves were plotted using GraphPad Prism v6 nonlinear regression (three parameter fit) and log IC50 values reported.

In the case of `O=C(NCC1(N2CCN(c3ccccc3)CC2)CCOCC1)c1cccnc1Sc1ccccc1` [JNJ-47965567], the IC50 (mouse P2X7 (mP2X7); Mouse P2X7 (Table 1), mean in brackets, n = 3) is reported as 125 nM, the “difference between hP2X7 and mP2X7 IC50 values” (mouse P2X7 (mP2X7); mP2X7 vs hP2X7) is reported as 13 fold and the IC50 (M105A hP2X7; M105A hP2X7, agonist ATP, log IC50 ± standard error, read-out: Log IC50 (converted)) is reported as 45.6 nM. The IC50 (M105A hP2X7; M105A hP2X7, agonist ATP, mean in brackets, read-out: mean IC50) was 45 nM, the IC50 (M105A hP2X7; M105A hP2X7, agonist BzATP, mean in brackets, read-out: mean IC50) was 28.7 nM and the “increase in IC50 at M105A-hP2X7 relative to hP2X7” value (M105A hP2X7; M105A hP2X7 vs hP2X7) was “less than 5 fold”.
